# Columns and labels:
# [1] = tested on: Escherichia coli, reference ATCC 8739; test: Preservative Efficacy Test (PET), Escherichia coli; assay type: cell-based; set-up: key to Gram− bacterium, Esoherichia coli: −: No European pharmacopoeia criterion or USP criterion is met; +: for the coli: the USP criteria are met; ++: the European pharmacopoeia criteria A are met; conditions: additive in standard emulsion
# Source text: (§1) A particular problem that must be solved by the invention is that of effectively protecting a pharmaceutical topical composition while at the same time meeting the criteria required by the European and U.S. pharmacopoeias. This is because, since the purpose of the pharmaceutical composition is to become a pharmaceutical product with a marketing authorization, it is imperative for the composition according to the invention to meet these criteria. In order to verify this point and to determine the antimicrobial action of the various mixtures of excipients according to the invention, a test protocol, known as the PET (Preservative Efficacy Test), exists. The PET comprises artificially inoculating the compositions with a known number of microorganisms, and then determining the decrease in the latter in the compositions tested, at given times. The protocol of this test is set up in order to abide by the recommendations of the European and U.S. pharmacopoeias. […] The mixture of excipients as preservatives, described herein, should therefore meet the criteria of these pharmacopoeias in the PET. This test comprises artificially contaminating aliquots of formulation by means of a calibrated inoculum of specific microorganisms and incubating the same at precise temperatures. Samples are taken from the contaminated aliquots at given time intervals in order to count the microorganisms. Bacteria: • Escherichia coli, reference ATCC 8739. • Pseudomonas aeruginosa, reference ATCC 9027. • Staphylococcus aureus, reference ATCC 6538.
# [2] = tested on: Pseudomonas aeruginosa, reference ATCC 9027; test: Preservative Efficacy Test (PET), Pseudomonas aeruginosa; assay type: cell-based; set-up: key to Gram− bacterium, Pseudomonas aeruginosa: −: No European pharmacopoeia criterion or USP criterion is met; +: for the coli: the USP criteria are met; ++: the European pharmacopoeia criteria A are met; conditions: additive in standard emulsion
# Source text: as §1, with “Bacteria: • Pseudomonas aeruginosa, reference ATCC 9027; NCIMB 8626; CIP 82.118. • Staphylococcus aureus, reference ATCC 6538; NCTC 10788; NCIMB 9518; CIP 4.83. Bacteria: • Escherichia coli,” for “Bacteria: • Escherichia coli,”
# [3] = tested on: Staphylococcus aureus, reference ATCC 6538; test: Preservative Efficacy Test (PET), Staphylococcus aureus; assay type: cell-based; set-up: key to Gram+ bacterium, Staphylococcus aureus: −: No European pharmacopoeia criterion or USP criterion is met; +: for the coli: the USP criteria are met; ++: the European pharmacopoeia criteria A are met; conditions: additive in standard emulsion
# Source text: as §1, with “Bacteria: • Pseudomonas aeruginosa, reference ATCC 9027; NCIMB 8626; CIP 82.118. • Staphylococcus aureus, reference ATCC 6538; NCTC 10788; NCIMB 9518; CIP 4.83. Bacteria: • Escherichia coli,” for “Bacteria: • Escherichia coli,”
# [4] = tested on: Bacteria and fungi (Escherichia coli, Pseudomonas aeruginosa, Staphylococcus aureus, Candida albicans, Aspergillus niger); test: PET, overall compliance with European and U.S. pharmacopoeia criteria; assay type: cell-based; conditions: additive in standard emulsion
# Source text: A particular problem that must be solved by the invention is that of effectively protecting a pharmaceutical topical composition while at the same time meeting the criteria required by the European and U.S. pharmacopoeias. This is because, since the purpose of the pharmaceutical composition is to become a pharmaceutical product with a marketing authorization, it is imperative for the composition according to the invention to meet these criteria. In order to verify this point and to determine the antimicrobial action of the various mixtures of excipients according to the invention, a test protocol, known as the PET (Preservative Efficacy Test), exists. The PET comprises artificially inoculating the compositions with a known number of microorganisms, and then determining the decrease in the latter in the compositions tested, at given times. The protocol of this test is set up in order to abide by the recommendations of the European and U.S. pharmacopoeias. The test and also the recommendations of the European and U.S. pharmacopoeias are described in Example 1 to follow. The mixture of excipients as preservatives, described herein, should therefore meet the criteria of these pharmacopoeias in the PET.
# This test comprises artificially contaminating aliquots of formulation by means of a calibrated inoculum of specific microorganisms and incubating the same at precise temperatures. Samples are taken from the contaminated aliquots at given time intervals in order to count the microorganisms.
# It also makes it obligatory to study the reductions in population of the microorganisms introduced into the formulation according to two acceptability criteria.
# Since the A criteria are the most strict, it are […] generally required that they be met.
# In justified cases, when the A criteria cannot be complied with, for example owing to an increase in the risk of adverse reactions, the B criteria, which are less drastic, apply.
# NI (Non-Increase) signifies that there must not be an increase in the number of microorganisms.
# It imposes logarithmic reductions in the population of microorganisms which are different than that of the European pharmacopoeia.
# [5] = tested on: Candida albicans, reference ATCC 10231; test: Preservative Efficacy Test (PET), Candida albicans; assay type: cell-based; set-up: key to Yeast, Candida albicans: −: No European pharmacopoeia criterion or USP criterion is met; +: for the coli: the USP criteria are met; ++: the European pharmacopoeia criteria A are met; conditions: additive in standard emulsion
# Source text: (§2) A particular problem that must be solved by the invention is that of effectively protecting a pharmaceutical topical composition while at the same time meeting the criteria required by the European and U.S. pharmacopoeias. This is because, since the purpose of the pharmaceutical composition is to become a pharmaceutical product with a marketing authorization, it is imperative for the composition according to the invention to meet these criteria. In order to verify this point and to determine the antimicrobial action of the various mixtures of excipients according to the invention, a test protocol, known as the PET (Preservative Efficacy Test), exists. The PET comprises artificially inoculating the compositions with a known number of microorganisms, and then determining the decrease in the latter in the compositions tested, at given times. The protocol of this test is set up in order to abide by the recommendations of the European and U.S. pharmacopoeias. […] The mixture of excipients as preservatives, described herein, should therefore meet the criteria of these pharmacopoeias in the PET. This test comprises artificially contaminating aliquots of formulation by means of a calibrated inoculum of specific microorganisms and incubating the same at precise temperatures. Samples are taken from the contaminated aliquots at given time intervals in order to count the microorganisms. Fungi: • Candida albicans, reference ATCC 10231; NCPF 3179; IP 48.72. • Aspergillus niger, reference ATCC 16404; IMI 149007; IP 1431.83. Fungi: • Candida albicans, reference ATCC 10231. • Aspergillus niger, reference ATCC 16404.
# [6] = pH of the emulsion containing the additive; assay type: physicochemical; conditions: standard emulsion with 2% citric acid
# [7] = tested on: Aspergillus niger, reference ATCC 16404; test: Preservative Efficacy Test (PET), Aspergillus niger; assay type: cell-based; set-up: key to Moulds, Aspergillus Niger: −: No European pharmacopoeia criterion or USP criterion is met; +: for the coli: the USP criteria are met; ++: the European pharmacopoeia criteria A are met; conditions: additive in standard emulsion at its given % (EDTA 0.15, citric acid 2, sodium ascorbate 2, tocopherol 0.05, BHT 1, propyl gallate 0.1, ascorbyl palmitate 1)
# Source text: as §2
smiles,measurement,setting,value
O=C(O)CC(O)(CC(=O)O)C(=O)O [Citric acid],"Gram− bacterium, Esoherichia coli",[1],+
same,"Gram− bacterium, Pseudomonas aeruginosa",[2],++
same,"Gram+ bacterium, Staphylococcus aureus",[3],++
same,Efficacy on the microorganisms as a whole / spectrum of efficacy,[4],bactericidal
same,Action on Candida albicans,[5],inhibits
same,"Yeast, Candida albicans",[5],++
same,pH,[6],2.04
same,"Moulds, Aspergillus Niger",[7],−
